From patent publication US8771973B2, “Methods for treating bleeding disorders using sulfated polysaccharides” (Baxter Healthcare S.A., priority 2004, dated 2014)

Test system: Hem-B mice
Experiment: dPT clotting time of blood samples from Hem-B mice treated with PPS
Format: in vivo
Design: unit not given here
Protocol: The efficacy of PPS in improving clotting in Hem-B mice was further tested in dPT assays. All mice were bled prior to the study to establish baseline (pretest) clotting times. Mice (14 weeks old) were treated subcutaneously twice a day with PPS for 4.5 days at the following doses: 2, 0.3 and 0.06 mg/kg in a volume of 250 μl. Mice were bled after 4.5 days, and clotting times were determined from collected blood samples.

Pentosan Polysulphate Sodium [PPS]
Mean clotting time at 4.5 days (0.06 mg/kg s.c. twice a day): 37
Mean clotting time at 4.5 days (0.3 mg/kg s.c. twice a day): 38
Mean clotting time at 4.5 days (2.0 mg/kg s.c. twice a day): 44
